Where a name gives a salt, the structure may show the parent alone.
Row | SMILES | melting point
1 | CC1CCCCN1C(=Nc1ccccc1)NC(=Nc1ccccc1)c1ccccc1 (stereo not shown) (as salt: hydroiodid) [Example 32, N-[(2-methyl-piperidin-1-yl)-phenylimino-methyl]-N′-phenyl-benzamidine] | 181 to 183 °C
2 | c1ccc(N=C(N=C(Nc2ccccc2)c2ccccc2)N2CCCCC2)cc1 (as salt: hydroiodid) [Example 12, N-phenyl-N′-(phenylimino-piperidin-1-yl-methyl)-benzamidine] | 198 to 200 °C (dec.)
3 | Cc1ccccc1C(=Nc1ccc(F)cc1)NC(=NC1CCCCC1)C1(C)CCCCC1 (as salt: hydrochloride) [Example 96, N-[cyclohexylimino-(1-methyl-cyclohexyl)-methyl]-N′-(4-fluoro-phenyl)-2-methyl-benzamidine] | 127 to 129 °C
4 | c1ccc(N=C(NC(=Nc2ccccc2)N2CCCCO2)c2ccccc2)cc1 (as salt: nitrate) [Example 4, N-([1,2]Oxazinan-2-yl-phenylimino-methyl)-N′-phenyl-benzamidine] | 187 to 190 °C
5 | Fc1ccccc1C(=Nc1ccccc1)NC(=Nc1ccccc1)N1CCCC1 (as salt: nitrate) [Example 39, N-[(2-fluoro-phenyl)-phenylimino-methyl]-N′-phenyl-pyrrolidine-1-carboxamidine] | 194 to 196 °C
6 | CC1CCCCN1C(=Nc1ccccc1)NC(=Nc1ccccc1)c1ccccc1 (stereo not shown) (as salt: hydroiodid) [Example 3, N-[(2-Methyl-piperidin-1-yl)-phenylimino-methyl]-N′-phenyl-benzamidine] | 219 to 221 °C (dec.)
7 | c1ccc(N=C(N=C(Nc2ccccc2)c2ccccc2)N2CCSCC2)cc1 (as salt: hydroiodid) [Example 13, N-phenyl-N′-(phenylimino-thiomorpholin-4-yl-methyl)-benzamidine] | 216 to 218 °C (dec.)
8 | COc1ccc(N=C(NC(=Nc2ccccc2)N2CCCCCC2)c2ccccc2)cc1 (as salt: hydroiodid) [Example 18, N-(azepan-1-yl-phenylimino-methyl)-N′-(4-methoxy-phenyl)-benzamidine] | 241 to 243 °C
9 | COc1ccc(NC(=NC(=Nc2ccccc2)N2CCCC2)c2ccccc2)cc1 (as salt: hydrochloride) [Example 15, N-(4-methoxy-phenyl)-N′-(phenylimino-pyrrolidin-1-yl-methyl)-benzamidine] | 244 to 245 °C
10 | Cc1ccccc1C(=Nc1ccccc1)NC(=Nc1ccc(F)cc1)N1CCC(O)CC1 (as salt: hydrochloride) [Example 29, N-[(4-fluoro-phenylimino)-(4-hydroxy-piperidin-1-yl)-methyl]-2-methyl-N′-phenyl-benzamidine] | 224 to 225 °C
11 | c1ccc(N=C(NC(=Nc2ccccc2)N2CCCCCCC2)c2ccccc2)cc1 (as salt: hydroiodid) [Example 22, N-(azocan-1-yl-phenylimino-methyl)-N′-phenyl-benzamidine] | 252 to 253 °C (dec.)
12 | OC1CCCN(C(=Nc2ccccc2)NC(=Nc2ccccc2)c2ccccc2)C1 (stereo not shown) (as salt: nitrate) [Example 38, N-[(3-hydroxy-piperidin-1-yl)-phenylimino-methyl]-N′-phenyl-benzamidine] | 189 to 192 °C
13 | Cc1ccccc1C(=Nc1ccc(F)cc1)NC(=Nc1ccccc1)N1CCCCCC1 (as salt: hydrochloride) [Example 34, N-(azepan-1-yl-phenylimino-methyl)-N′-(4-fluoro-phenyl)-2-methyl-benzamidine] | 240 to 242 °C

More lines, now with the values ahead:

Row | melting point | SMILES
14 | 207 to 209 °C | Cc1cccc(C)c1C(=Nc1ccc(F)cc1)NC(=Nc1ccccc1Cl)N1CCCCC1C (stereo not shown) (as salt: hydrochloride) [Example 85, N-[(2-chloro-phenylimino)-(2-methyl-piperidin-1-yl)-methyl]-N′-(4-fluoro-phenyl)-2,6-dimethyl-benzamidine]
15 | 163 to 166 °C (dec.) | Cc1cccc(C)c1C(=NC(=Nc1ccccc1)N1CCC(O)CC1C)Nc1ccc(F)cc1 (stereo not shown) (as salt: hydrochloride) [Example 72, N-(4-fluoro-phenyl)-N′-[(4-hydroxy-2-methyl-piperidin-1-yl)-phenylimino-methyl]-2,6-dimethyl-benzamidine]
16 | 206 to 208 °C | Cc1ccccc1N=C(N=C(Nc1ccc(F)cc1)c1c(C)cccc1C)N1CCCCC1C (stereo not shown) (as salt: hydrochloride) [Example 84, N-(4-fluoro-phenyl)-2,6-dimethyl-N′-[(2-methyl-piperidin-1-yl)-o-tolylimino-methyl]-benzamidine]
17 | 171 to 173 °C | CC1CCCCN1C(N=C(Nc1ccc(F)cc1)c1c(F)cccc1F)=Nc1ccc(F)cc1 (stereo not shown) (as salt: nitrate) [Example 51, 2,6-difluoro-N-(4-fluoro-phenyl)-N′-[(4-fluoro-phenylimino)-(2-methyl-piperidin-1-yl)-methyl]-benzamidine]
18 | 215 to 217 °C | Cc1cccc(C)c1C(=NC(=Nc1ccccc1)N1CCC(=O)CC1C)Nc1ccc(F)cc1 (stereo not shown) (as salt: hydrochloride) [Example 65, N-(4-fluoro-phenyl)-2,6-dimethyl-N′-[(2-methyl-4-oxo-piperidin-1-yl)-phenylimino-methyl]-benzamidine]
19 | 163 to 165 °C | Cc1cccc(C)c1C(=NC(=Nc1ccccc1)N1CCC(O)CC1)Nc1ccc(F)cc1 (as salt: hydrochloride) [Example 9, N-(4-Fluoro-phenyl)N′-[(4-hydroxy-piperidin-1-yl)-phenylimino-methyl]-2,6-dimethyl-benzamidine]
20 | > 160 °C (dec.) | Cc1ccccc1C(=Nc1ccc(F)cc1)NC(=NC1CCCCC1)N1CCCCC1C (stereo not shown) (as salt: hydrochloride) [Example 97, N-[cyclohexylimino-(2-methyl-piperidin-1-yl)-methyl]-N′-(4-fluoro-phenyl)-2-methyl-benzamidine]
21 | 255 to 257 °C | Cc1cccc(C)c1C(=Nc1ccccc1)NC(=Nc1ccccc1)N1CCCC1 (as salt: hydroiodid) [Example 31, N-[(2,6-dimethyl-phenyl)-phenylimino-methyl]-N′-phenyl-pyrrolidine-1-carboxamidine]
22 | 208 to 210 °C (dec.) | Cc1cccc(C)c1C(=NC(=NC(C)C)N1CCCCC1C)Nc1ccc(F)cc1 (stereo not shown) (as salt: hydrochloride) [Example 99, N-(4-fluoro-phenyl)-N′-[isopropylimino-(2-methyl-piperidin-1-yl)-methyl]-2,6-dimethyl-benzamidine]
23 | 140 to 142 °C (dec.) | Cc1ccccc1C(=CC(=NC1CC1)N1CCCCO1)Nc1ccc(F)cc1 (as salt: hydrochloride) [Example 107, (3cyclopropylimino-3-[1,2]oxazinan-2-yl-1-o-tolyl-propenyl)-(4-fluoro-phenyl)-amine]
24 | 165 to 167 °C (dec.) | Cc1cccc(C)c1C(=Nc1ccc(F)cc1)NC(=Nc1ccccc1)N1C(C)CCCC1C (stereo not shown) (as salt: hydrochloride) [Example 59, N-[(2,6-dimethyl-piperidin-1-yl)-phenylimino-methyl]-N′-(4-fluoro-phenyl)-2,6-dimethyl-benzamidine]
25 | 214 to 215 °C | COc1ccc(NC(=NC(=Nc2ccccc2)N2CCCCO2)c2c(C)cccc2C)cc1 (as salt: hydrochloride) [Example 67, N-(4-methoxy-phenyl)-2,6-dimethyl-N′-([1,2]oxazinan-2-yl-phenylimino-methyl)-benzamidine]
